Results from US20060069132A1, “Azolecarboxamide herbicides” (priority 2004, published 2006).

Assays:
barnyardgrass = assay: Test A pre-/postemergence herbicide test; format: in vivo, Echinochloa crus-galli
Method in brief: (§1)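 Seeds sown in sandy loam received a preemergence directed soil spray of compound in non-phytotoxic solvent with surfactant; postemergence plants (2–10 cm, one- to two-leaf stage) were sprayed to runoff at the same time. After ~10 days in greenhouse, injury was rated visually versus untreated controls (0 = no effect, 100 = complete control).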

large crabgrass = assay: Test A pre-/postemergence herbicide test; format: in vivo, Digitaria sanguinalis
Method in brief: as §1

redroot pigweed = assay: Test A pre-/postemergence herbicide test; format: in vivo, Amaranthus retroflexus
Method in brief: as §1

velvetleaf = assay: Test B pre-/postemergence herbicide test; format: in vivo, Abutilon theophrasti; settings: for Velvetleaf plant response rating: postemergence, visual rating
Method in brief: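 Pre: seeds sown, then sprayed. Post: 1–4-leaf plants (2–18 cm) sprayed at the same time. Paddy: flooded, treated at 2-leaf stage. Formulation: non-phytotoxic solvent with surfactant. Greenhouse 13–15 days; visual 0–100 score relative to controls.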

bermudagrass = assay: Test C pre-/postemergence herbicide test; format: in vivo, Cynodon dactylon; settings: for Bermudagrass plant response rating: 500 g ai/ha
Method in brief: (§2)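 Seeds were planted and sprayed preemergence with test chemicals in a non-phytotoxic solvent mixture containing surfactant; postemergence treatments went onto plants 2 to 18 cm tall (1- to 4-leaf stage). After 12 to 14 days in a greenhouse, injury was rated visually against untreated controls on a 0–100 scale.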

cocklebur = assay: Test C pre-/postemergence herbicide test; format: in vivo, Xanthium strumarium; settings: for Cocklebur plant response rating: 500 g ai/ha
Method in brief: as §2

johnsongrass = assay: Test C pre-/postemergence herbicide test; format: in vivo, Sorghum halepense; settings: for Johnsongrass plant response rating: 500 g ai/ha
Method in brief: as §2

eastern black nightshade = assay: Test C pre-/postemergence herbicide test; format: in vivo, Solanum ptycanthum; settings: for Plant response rating (0 = no effect, 100 = complete control), Nightshade: 62 g ai/ha; for Plant response rating (0 = no effect, 100 = complete control), Nightshade / Plant response rating, Nightshade: preemergence; for Plant response rating, Nightshade: 125 g ai/ha, scale 0 (no effect) to 100 (complete control), visual, 12 to 14 days; for Nightshade plant response rating: Preemergence, 500 g ai/ha, scale 0 to 100, 0 no effect, 100 complete control
Method in brief: as §2

soybean = assay: Test C pre-/postemergence herbicide test; format: in vivo, Glycine max; settings: for Soybean plant response rating: 500 g ai/ha
Method in brief: as §2

[1] = Postemergence, 500 g ai/ha, 0 to 100 scale, 0 no effect, 100 complete control
[2] = Postemergence, 2000 g ai/ha, 0 to 100 scale, 0 no effect, 100 complete control
[3] = Preemergence, 500 g ai/ha, visual rating, 0 to 100 scale (0 no effect, 100 complete control)
[4] = Preemergence, 2000 g ai/ha, visual rating, 0 to 100 scale (0 no effect, 100 complete control)
[5] = Postemergence, 500 g ai/ha, visual rating after 13 to 15 days, scale 0 (no effect) to 100 (complete control)
[6] = 125 g ai/ha, scale 0 (no effect) to 100 (complete control)
[7] = preemergence, 125 g ai/ha, 0 to 100 scale, 0 is no effect, 100 is complete control
[8] = 125 g ai/ha, scale 0 (no effect) to 100 (complete control), visual, 12 to 14 days, preemergence
[9] = 250 g ai/ha, scale 0 to 100 (0 no effect, 100 complete control), visual, 12 to 14 days, preemergence
[10] = Postemergence, 250 g ai/ha, scale 0 to 100, 0 no effect, 100 complete control
[11] = Preemergence, scale 0 to 100, 0 no effect, 100 complete control
[12] = postemergence, 125 g ai/ha, scale 0 to 100
[13] = postemergence, 62 g ai/ha, scale 0 to 100
[14] = Preemergence, 2000 g ai/ha, 0 to 100 scale, 0 no effect, 100 complete control

SMILES: CC(=NO)c1cccc(NC(=O)c2cc(C(C)(C)C)nn2CCF)c1 [Compound 115]
- Barnyardgrass plant response rating (barnyardgrass; [1]): 70
- Plant response rating, Barnyardgrass (barnyardgrass; [2]): 80
- Barnyardgrass plant response rating (barnyardgrass; [3]): 70
- Barnyardgrass plant response rating (barnyardgrass; [4]): 85
- Crabgrass, Large plant response rating (large crabgrass; [1]): 75
- Plant response rating, Crabgrass, Large (large crabgrass; [2]): 80
- Crabgrass, Large plant response rating (large crabgrass; [3]): 100
- Crabgrass, Large plant response rating (large crabgrass; [4]): 100
- Pigweed plant response rating (redroot pigweed; [1]): 95
- Plant response rating, Pigweed (redroot pigweed; [2]): 100
- Pigweed plant response rating (redroot pigweed; [3]): 95
- Pigweed plant response rating (redroot pigweed; [4]): 100
- Plant response rating, Velvetleaf (velvetleaf; 500 g ai/ha, visual rating 0-100, 0 no effect, 100 complete control, preemergence): 100
- Plant response rating, Velvetleaf (velvetleaf; [5]): 80
- Velvetleaf plant response rating (velvetleaf; [6]): 60
- Plant response rating, Velvetleaf (velvetleaf; [7]): 80
- Plant response rating (0 = no effect, 100 = complete control), Bermudagrass (bermudagrass; 62 g ai/ha, preemergence): 100
- Plant response rating, Bermudagrass (bermudagrass; [8]): 100
- Plant response rating, Bermudagrass (bermudagrass; [9]): 100
- Bermudagrass plant response rating (bermudagrass; Postemergence, scale 0 to 100): 100
- Plant response rating, Bermudagrass (bermudagrass; [10]): 60
- Bermudagrass plant response rating (bermudagrass; [11]): 100
- Plant response rating, Bermudagrass (bermudagrass; [12]): 60
- Plant response rating, Bermudagrass (bermudagrass; [13]): 10
- Plant response rating (0 = no effect, 100 = complete control), Cocklebur (cocklebur; 62 g ai/ha, preemergence): 20
- Plant response rating, Cocklebur (cocklebur; [8]): 40
- Plant response rating, Cocklebur (cocklebur; [9]): 50
- Cocklebur plant response rating (cocklebur; Postemergence, scale 0 to 100): 100
- Plant response rating, Cocklebur (cocklebur; [10]): 100
- Cocklebur plant response rating (cocklebur; [11]): 100
- Plant response rating, Cocklebur (cocklebur; [12]): 90
- Plant response rating, Cocklebur (cocklebur; [13]): 90
- Plant response rating (0 = no effect, 100 = complete control), Johnsongrass (johnsongrass; 62 g ai/ha, preemergence): 70
- Plant response rating, Johnsongrass (johnsongrass; [8]): 100
- Johnsongrass plant response rating (johnsongrass; Postemergence, scale 0 to 100): 100
- Plant response rating, Johnsongrass (johnsongrass; [10]): 80
- Johnsongrass plant response rating (johnsongrass; [11]): 100
- Plant response rating, Johnsongrass (johnsongrass; [12]): 50
- Plant response rating, Johnsongrass (johnsongrass; [13]): 30
- Plant response rating (0 = no effect, 100 = complete control), Nightshade (eastern black nightshade): 100
- Plant response rating, Nightshade (eastern black nightshade): 100
- Nightshade plant response rating (eastern black nightshade): 100
- Plant response rating (0 = no effect, 100 = complete control), Soybean (soybean; 62 g ai/ha, preemergence): 0
- Plant response rating, Soybean (soybean; [8]): 0
- Soybean plant response rating (soybean; Postemergence, scale 0 to 100): 90
- Plant response rating, Soybean (soybean; [10]): 80
- Soybean plant response rating (soybean; [11]): 0
- Plant response rating, Soybean (soybean; [12]): 70
- Plant response rating, Soybean (soybean; [13]): 60

SMILES: CCn1nc(C(C)(C)C)cc1C(=O)Nc1cccc2c1CCN(C1CC1)C2=O [Compound 64]
- Plant response rating, Barnyardgrass (barnyardgrass; [1]): 30
- Plant response rating, Barnyardgrass (barnyardgrass; [2]): 75
- Barnyardgrass plant response rating (barnyardgrass; [3]): 55
- Barnyardgrass plant response rating (barnyardgrass; [14]): 85
- Plant response rating, Crabgrass, Large (large crabgrass; [1]): 30
- Plant response rating, Crabgrass, Large (large crabgrass; [2]): 60
- Crabgrass, Large plant response rating (large crabgrass; [3]): 70
- Crabgrass, Large plant response rating (large crabgrass; [14]): 100
- Plant response rating, Pigweed (redroot pigweed; [1]): 65
- Plant response rating, Pigweed (redroot pigweed; [2]): 95
- Pigweed plant response rating (redroot pigweed; [3]): 100
- Pigweed plant response rating (redroot pigweed; [14]): 100
- Plant response rating, Velvetleaf (velvetleaf; [5]): 10
- Velvetleaf plant response rating (velvetleaf; [6]): 10
- Plant response rating, Velvetleaf (velvetleaf; [7]): 0
- Plant response rating (0 = no effect, 100 = complete control), Bermudagrass (bermudagrass; 62 g ai/ha, preemergence): 0
- Plant response rating, Bermudagrass (bermudagrass; [8]): 30
- Plant response rating, Bermudagrass (bermudagrass; [9]): 85
- Bermudagrass plant response rating (bermudagrass; [11]): 90
- Plant response rating (0 = no effect, 100 = complete control), Cocklebur (cocklebur; 62 g ai/ha, preemergence): 0
- Plant response rating, Cocklebur (cocklebur; [8]): 0
- Plant response rating, Cocklebur (cocklebur; [9]): 0
- Cocklebur plant response rating (cocklebur; [11]): 0
- Plant response rating (0 = no effect, 100 = complete control), Johnsongrass (johnsongrass; 62 g ai/ha, preemergence): 0
- Plant response rating, Johnsongrass (johnsongrass; [8]): 20
- Johnsongrass plant response rating (johnsongrass; [11]): 60
- Plant response rating (0 = no effect, 100 = complete control), Nightshade (eastern black nightshade): 0
- Plant response rating, Nightshade (eastern black nightshade): 50
- Nightshade plant response rating (eastern black nightshade): 95
- Plant response rating (0 = no effect, 100 = complete control), Soybean (soybean; 62 g ai/ha, preemergence): 0
- Plant response rating, Soybean (soybean; [8]): 0
- Soybean plant response rating (soybean; [11]): 60
